Results from patent publication US12384800B2, “Antitumoral compounds” (priority 2017, dated 2025).
Several values for one entry are separate records, joined by “and”; a condition that tells them apart may be missing. Equal values may be shown once. Read-outs that look alike come from different tables or passages of the source.

How the values were obtained:
[1] = MTMD (Maximum Tolerated Multiple Dose) determination, iv weekly x 3; format: in vivo; details: mice; iv/Q7d × 3
Source text: Female CD-1 or Athymic Nude-Fox1 nu/nu mice (Envigo) were utilized for all experiments. […] Animals were acclimated for five days prior to being individually tattoo-identified. Animal protocols were reviewed and approved according to the regional Institutional Animal Care and Use Committees.
Mice were randomly allocated into experimental groups and intravenously administered, once for the MTD (Maximum Tolerated Dose) determination or one administration a week during three consecutive weeks, for the MTMD (Maximum Tolerated Multiple Dose) determination study. The animals were administered with white formulation or with compound dissolved in the experimental formulation at different concentrations. The volume administered was always […]. Once administered, animals were monitored for clinical signs of systemic toxicity, changes in body weight and mortality up to 14 days after the administration.

HT1080 tumors [2] = details: Day 0
Description: (§1) Female athymic nu/nu mice (Harlan Laboratories Models, S.L. Barcelona, Spain or Envigo, Spain) were utilized for all experiments. Animal were housed in individually ventilated cages Sealsafe® Plus, Techniplast S.P.A.), up to ten per cage on a 12-hour light-dark cycle at 21-23° C. and 40-60% humidity. […] Animals were acclimated for at least 5 days prior to tumor implantation with a tumor cell suspension.
(§2) HT1080 cells were maintained in vitro at 37° C. with 5% CO2 in Minimum Essential Medium Eagle (MEME) (Sigma-Aldrich, Co). Each animal was orthotopically implanted into gastroecnemius muscle by an intramuscular injection using a 26G needle and a 1 cc syringe at 4-6 weeks of age, with 10×10^6 HT1080 cells, suspended in serum free medium, without antibiotics.
(§3) Treatment tolerability was assessed by monitoring body weight evolution, clinical signs of systemic toxicity, as well as evidences of local damage in the injection site.
(§4) In xenograft studies with HT1080 cell line: • Total diameter (tumor+leg) measurements were determined by using digital caliper (Fowler Sylvac, S235PAT).
(§5) Treatments producing >20% lethality and/or 20% net body weight loss were considered toxic.

P388 lymphoma = details: U.S. Pat. No. 5,149,804; cited from earlier work
B16 melanoma = details: U.S. Pat. No. 5,149,804; cited from earlier work
Lewis lung carcinoma = details: U.S. Pat. No. 5,149,804; cited from earlier work
[3] = system: xenografted human tumor cell lines (breast, kidney and ovarian cancer); details: xenografted human tumor cell lines in mice (breast, kidney and ovarian cancer); cited from earlier work
MDA-MB-231 tumors = test: Human breast xenograft, tumor volume
Description: as §1
MDA-MB-231 cells were maintained in vitro at 37° C. with 5% CO2 in Dulbecco's Modified Eagle's Medium (Sigma-Aldrich, Co). Culture cells were passaged every 3 to 5 days upon reaching confluence.
as §3
(§6) In Xenograft Studies with Other Cell Lines: • Tumor volume was calculated using the equation (a·b^2)/2, where a: length (longest diameter) and b: width (shortest diameter) were measured in mm by using digital caliper (Fowler Sylvac, S235PAT).
as §5

A2780 tumors = test: Human ovarian xenograft, tumor volume
Description: as §1
Culture cells were passaged every 3 to 5 days upon reaching confluence. Each animal was subcutaneously implanted (on the right flank using 26G needle and a 1 cc syringe) at 4-6 weeks of age with 10×10^6 A2780 cells suspended in 0.05 mL of a solution consisting of 50% Matrigel® (Corning Incorporated Life Sciences) and 50% medium without serum or antibiotics.
as §3, §6, §5

HGC27 tumors = test: Human gastric xenograft, tumor volume
Description: as §1
HGC27 cells were maintained in vitro at 37° C. with 5% CO2 in Iscove's Modified Dulbecco's Medium (Sigma Aldrich, Co). Culture cells were passage every 3 to 5 days on reaching confluence. Each animal was subcutaneously implanted (on the right flank using 26G needle and a 1 cc syringe) at 4-6 weeks of age with 5×10^6 HGC-27 cells suspended in 0.05 mL of a solution consisting of 50% Matrigel® (Corning Incorporated Life Sciences), 50% medium without serum or antibiotics.
as §3, §6, §5

H460 tumors = test: Human lung (NSCLC) xenograft, tumor volume
Description: as §1
H460 cells were maintained in vitro at 37° C. with 5% CO2 in Dulbecco's Modified Eagle's Medium (Sigma-Aldrich, Co). Culture cells were passaged every 3 to 5 days upon reaching confluence. Each animal was subcutaneously implanted (on the right flank using 26G needle and a 1 cc syringe) at 4-6 weeks of age with 5×10^6 H460 cells suspended in 0.05 mL of a solution consisting of 50% Matrigel® (Corning Incorporated Life Sciences) and 50% medium without serum or antibiotics.
as §3, §6, §5
Tables and figures summarize the data obtained from complete experimental groups, i.e. those groups keeping the initial number of animals, n=8-10.

HT1080 tumors [4] = test: Human fibrosarcoma xenograft, total diameter (tumor + leg)
Description: as §1, §2, §3, §4, §5

## COc1c(C)cc2c(c1O)[C@@H]1[C@@H]3[C@@H]4SC[C@]5(NCCc6c5oc5ccccc65)C(=O)OC[C@@H](c5c6c(c(C)c(OC(C)=O)c54)OCO6)N3[C@@H](O)[C@H](C2)N1C [Compound 32]
[1]
  MTMD: 0.5 mg/kg
HT1080 tumors [2]
  Total diameter (tumor + leg): 7.5 mm

## COc1c(C)cc2c(c1O)[C@@H]1[C@@H]3[C@@H]4SC[C@]5(NCCc6c5[nH]c5ccccc65)C(=O)OC[C@@H](c5c6c(c(C)c(OC(C)=O)c54)OCO6)N3[C@@H](O)[C@H](C2)N1C [ET-736, Ecteinascidin 736]
[1]
  MTMD: 0.5 mg/kg
P388 lymphoma
  protection of mice in vivo: protects mice in vivo at very low concentrations
B16 melanoma
  protection of mice in vivo: protects mice in vivo at very low concentrations
Lewis lung carcinoma
  protection of mice in vivo: protects mice in vivo at very low concentrations

## COc1ccc2[nH]c3c(c2c1)CCN[C@]31CS[C@@H]2c3c(OC(C)=O)c(C)c4c(c3[C@H](COC1=O)N1[C@@H]2[C@H]2c3c(cc(C)c(OC)c3O)C[C@@H]([C@@H]1O)N2C)OCO4 [PM01183, reference compound]
[3]
  in vivo activity: significant in vivo activity
MDA-MB-231 tumors; Day 4
  Median Tumor Volume: 177.2 mm^3
MDA-MB-231 tumors; Day 7
  Median Tumor Volume: 189.0 mm^3 and 185.9 mm^3 and 186.3 mm^3
MDA-MB-231 tumors; Day 11
  Median Tumor Volume: 250.7 mm^3
MDA-MB-231 tumors; Day 14
  Median Tumor Volume: 230.1 mm^3 and 290.8 mm^3 and 266.1 mm^3
MDA-MB-231 tumors; Day 18
  Median Tumor Volume: 327.7 mm^3
MDA-MB-231 tumors; Day 21
  Median Tumor Volume: 305.9 mm^3 and 337.9 mm^3 and 391.0 mm^3
MDA-MB-231 tumors; Day 25
  Median Tumor Volume: 493.1 mm^3
MDA-MB-231 tumors; Day 28
  Median Tumor Volume: 535.8 mm^3 and 507.4 mm^3 and 627.3 mm^3
MDA-MB-231 tumors; Day 32
  Median Tumor Volume: 789.0 mm^3
MDA-MB-231 tumors; Day 35
  Median Tumor Volume: 819.7 mm^3 and 796.1 mm^3
MDA-MB-231 tumors; Day 36
  Median Tumor Volume: 1022.0 mm^3
MDA-MB-231 tumors; Day 39
  Median Tumor Volume: 1294.2 mm^3
MDA-MB-231 tumors; Day 42
  Median Tumor Volume: 962.7 mm^3 and 1062.5 mm^3 and 1643.3 mm^3
MDA-MB-231 tumors; Day 46
  Median Tumor Volume: 1658.9 mm^3
MDA-MB-231 tumors; Day 49
  Median Tumor Volume: 1301.3 mm^3 and 1416.3 mm^3 and 1938.0 mm^3
MDA-MB-231 tumors; Day 52
  Median Tumor Volume: 2199.4 mm^3
MDA-MB-231 tumors; Day 56
  Median Tumor Volume: 1673.3 mm^3
MDA-MB-231 tumors; Day 63
  Median Tumor Volume: 1811.9 mm^3
A2780 tumors; Day 2
  Median Tumor Volume: 235.5 mm^3 and 236.5 mm^3
A2780 tumors; Day 3
  Median Tumor Volume: 454.5 mm^3
A2780 tumors; Day 4
  Median Tumor Volume: 463.2 mm^3
A2780 tumors; Day 5
  Median Tumor Volume: 671.2 mm^3 and 772.1 mm^3
A2780 tumors; Day 7
  Median Tumor Volume: 1048.9 mm^3 and 1161.5 mm^3 and 986.3 mm^3
A2780 tumors; Day 9
  Median Tumor Volume: 1451.4 mm^3
A2780 tumors; Day 10
  Median Tumor Volume: 1615.6 mm^3
A2780 tumors; Day 11
  Median Tumor Volume: 2062 mm^3 and 2062.0 mm^3
A2780 tumors; Day 12
  Median Tumor Volume: 2020.3 mm^3 and 1703.0 mm^3
A2780 tumors; Day 14
  Median Tumor Volume: 2029.3 mm^3
HGC27 tumors; Day 2
  Median Tumor Volume: 317.5 mm^3 and 372.4 mm^3 and 395.6 mm^3
HGC27 tumors; Day 5
  Median Tumor Volume: 404.0 mm^3 and 474.1 mm^3 and 572.4 mm^3
HGC27 tumors; Day 7
  Median Tumor Volume: 485.7 mm^3 and 571.8 mm^3 and 766.6 mm^3
HGC27 tumors; Day 9
  Median Tumor Volume: 604.6 mm^3 and 787.9 mm^3 and 950.7 mm^3
HGC27 tumors; Day 12
  Median Tumor Volume: 760.8 mm^3 and 951.1 mm^3
HGC27 tumors; Day 14
  Median Tumor Volume: 789.6 mm^3 and 1064.4 mm^3 and 1199.4 mm^3
HGC27 tumors; Day 16
  Median Tumor Volume: 719.5 mm^3 and 1346.1 mm^3 and 1353.1 mm^3
HGC27 tumors; Day 19
  Median Tumor Volume: 895.9 mm^3 and 1691.8 mm^3 and 1294.3 mm^3
HGC27 tumors; Day 21
  Median Tumor Volume: 1051.3 mm^3 and 1920.0 mm^3 and 1335.1 mm^3
HGC27 tumors; Day 23
  Median Tumor Volume: 2011.4 mm^3 and 1320.3 mm^3
HGC27 tumors; Day 26
  Median Tumor Volume: 1901.2 mm^3 and 2102.2 mm^3 and 1364.5 mm^3
HGC27 tumors; Day 28
  Median Tumor Volume: 2028.9 mm^3
HGC27 tumors; Day 30
  Median Tumor Volume: 1671.9 mm^3
HGC27 tumors; Day 33
  Median Tumor Volume: 2009.2 mm^3
H460 tumors; Day 2
  Median Tumor Volume: 457.0 mm^3
H460 tumors; Day 4
  Median Tumor Volume: 861.5 mm^3
H460 tumors; Day 7
  Median Tumor Volume: 940.4 mm^3 and 1004.0 mm^3 and 1280.2 mm^3
H460 tumors; Day 9
  Median Tumor Volume: 1210.3 mm^3 and 1211.3 mm^3 and 1424.9 mm^3
H460 tumors; Day 11
  Median Tumor Volume: 1433.8 mm^3 and 1969.9 mm^3
H460 tumors; Day 12
  Median Tumor Volume: 1515.4 mm^3
H460 tumors; Day 14
  Median Tumor Volume: 1529.5 mm^3 and 1633.3 mm^3
H460 tumors; Day 16
  Median Tumor Volume: 1723.9 mm^3
H460 tumors; Day 19
  Median Tumor Volume: 2112.3 mm^3
H460 tumors; Day 21
  Median Tumor Volume: 2409.4 mm^3
HT1080 tumors [4]; Day 2
  Total diameter (tumor + leg): 9.8 mm
HT1080 tumors [4]; Day 2, iv Days 0, 7 and 14, PM01183 […], Compound D 0.5 mg/kg
  Total diameter (tumor + leg): 9.2 mm
HT1080 tumors [4]; Day 5
  Total diameter (tumor + leg): 9.7 mm
HT1080 tumors [4]; Day 7
  Total diameter (tumor + leg): 11.4 mm
HT1080 tumors [4]; Day 7, iv Days 0, 7 and 14, PM01183 […], 4-R 0.30 mg/kg
  Total diameter (tumor + leg): 11.2 mm
HT1080 tumors [4]; Day 7, iv Days 0, 7 and 14, PM01183 […], Compound D 0.5 mg/kg
  Total diameter (tumor + leg): 12.2 mm
HT1080 tumors [4]; Day 9
  Total diameter (tumor + leg): 12.7 mm
HT1080 tumors [4]; Day 9, iv Days 0, 7 and 14, PM01183 […], 4-R 0.30 mg/kg
  Total diameter (tumor + leg): 12.3 mm
HT1080 tumors [4]; Day 9, iv Days 0, 7 and 14, PM01183 […], Compound D 0.5 mg/kg
  Total diameter (tumor + leg): 12.6 mm
HT1080 tumors [4]; Day 12
  Total diameter (tumor + leg): 13.7 mm
HT1080 tumors [4]; Day 12, iv Days 0, 7 and 14, PM01183 […], Compound D 0.5 mg/kg
  Total diameter (tumor + leg): 13.1 mm
HT1080 tumors [4]; Day 14
  Total diameter (tumor + leg): 14.6 mm
HT1080 tumors [4]; Day 14, iv Days 0, 7 and 14, PM01183 […], 4-R 0.30 mg/kg
  Total diameter (tumor + leg): 14.6 mm
HT1080 tumors [4]; Day 14, iv Days 0, 7 and 14, PM01183 […], Compound D 0.5 mg/kg
  Total diameter (tumor + leg): 14.6 mm
HT1080 tumors [4]; Day 16
  Total diameter (tumor + leg): 15.5 mm
HT1080 tumors [4]; Day 16, iv Days 0, 7 and 14, PM01183 […], Compound D 0.5 mg/kg
  Total diameter (tumor + leg): 14.5 mm
HT1080 tumors [4]; Day 19
  Total diameter (tumor + leg): 15.6 mm
HT1080 tumors [4]; Day 19, iv Days 0, 7 and 14, PM01183 […], Compound D 0.5 mg/kg
  Total diameter (tumor + leg): 15.0 mm
HT1080 tumors [4]; Day 21
  Total diameter (tumor + leg): 18.0 mm
HT1080 tumors [4]; Day 21, iv Days 0, 7 and 14, PM01183 […], 4-R 0.30 mg/kg
  Total diameter (tumor + leg): 15.1 mm
HT1080 tumors [4]; Day 21, iv Days 0, 7 and 14, PM01183 […], Compound D 0.5 mg/kg
  Total diameter (tumor + leg): 18.0 mm
HT1080 tumors [4]; Day 23, iv Days 0, 7 and 14, PM01183 […], 4-R 0.30 mg/kg
  Total diameter (tumor + leg): 16.3 mm
